Holding throughout (assay type): functional
Assay [1] deals with MOLT-4. Description: Antiproliferative activity against human MOLT-4 cells assessed as […] cell proliferation at 10 uM incubated for 48 hrs by WST-1 assay relative to control. A general note: Tetrazolium assays rely on reduction of a dye to a coloured formazan, in cell work by metabolically active cells.
The subject of assay [2] is MOLT-4. Description: Antiproliferative activity against human MOLT-4 cells assessed as […] cell proliferation at 10 uM incubated for 48 hrs in presence of 2 uM of CDDP by WST-1 assay relative to control.
Assay [3] concerns Jurkat. Description: Antiproliferative activity against human Jurkat cells assessed as […] cell proliferation at 10 uM incubated for 48 hrs by WST-1 assay relative to control.
Assay [4] relates to Jurkat. As to the kind of experiment: Antiproliferative activity against human Jurkat cells assessed as […] cell proliferation at 10 uM incubated for 48 hrs in presence of 2 uM of CDDP by WST-1 assay relative to control.
Assay [5] concerns A2780. Description: Antiproliferative activity against human A2780 cells assessed as […] cell proliferation at 10 uM incubated for 48 hrs by WST-1 assay relative to control.
The subject of assay [6] is A2780. Description: Antiproliferative activity against human A2780 cells assessed as […] cell proliferation at 10 uM incubated for 48 hrs in presence of 2 uM of CDDP by WST-1 assay relative to control.
Assay [7] concerns MCF7. Description: Antiproliferative activity against human MCF7 cells assessed as […] cell proliferation at 10 uM incubated for 48 hrs by WST-1 assay relative to control.
The test system of assay [8] is MCF7. As to the kind of experiment: Antiproliferative activity against human MCF7 cells assessed as […] cell proliferation at 10 uM incubated for 48 hrs in presence of 10 uM of CDDP by WST-1 assay relative to control.
In assay [9] the test system is A549. Description: Antiproliferative activity against human A549 cells assessed as […] cell proliferation at 10 uM incubated for 48 hrs by WST-1 assay relative to control.
The subject of assay [10] is A549. As to the kind of experiment: Antiproliferative activity against human A549 cells assessed as […] cell proliferation at 10 uM incubated for 48 hrs in presence of 15 uM of CDDP by WST-1 assay relative to control.
Assay [11] deals with SAOS-2. Description: Antiproliferative activity against human SAOS-2 cells assessed as […] cell proliferation at 10 uM incubated for 48 hrs by WST-1 assay relative to control.
Assay [12] has as its system SAOS-2. As to the kind of experiment: Antiproliferative activity against human SAOS-2 cells assessed as […] cell proliferation at 10 uM incubated for 48 hrs in presence of 15 uM of CDDP by WST-1 assay relative to control.
Assay [13] relates to PANC-1. As to the kind of experiment: Antiproliferative activity against human PANC-1 cells assessed as […] cell proliferation at 10 uM incubated for 48 hrs by WST-1 assay relative to control.
Assay [14] relates to PANC-1. Description: Antiproliferative activity against human PANC-1 cells assessed as […] cell proliferation at 10 uM incubated for 48 hrs in presence of 15 uM of CDDP by WST-1 assay relative to control.
For assay [15], the system named is HT-29. Description: Antiproliferative activity against human HT-29 cells assessed as […] cell proliferation at 10 uM incubated for 48 hrs by WST-1 assay relative to control.
The test system of assay [16] is HT-29. Description: Antiproliferative activity against human HT-29 cells assessed as […] cell proliferation at 10 uM incubated for 48 hrs in presence of 15 uM of CDDP by WST-1 assay relative to control.
The subject of assay [17] is HeLa. As to the kind of experiment: Antiproliferative activity against human HeLa cells assessed as […] cell proliferation at 10 uM incubated for 48 hrs by WST-1 assay relative to control.
The test system of assay [18] is HeLa. As to the kind of experiment: Antiproliferative activity against human HeLa cells assessed as […] cell proliferation at 10 uM incubated for 48 hrs in presence of 15 uM of CDDP by WST-1 assay relative to control.

In the case of `CCN1CCN(C(=O)c2cc3cc(-c4ccc(S(C)(=O)=O)cc4)cnc3[nH]2)CC1`, the Activity in assay [1] stood at 90%; in assay [2], 58%; in assay [3], 90%; in [4] it was 58%; in [5], 90%; in assay [6] it was 58%. Further, the Activity in assay [7] worked out at 90%; in assay [8] it was 58%; in [9] it was 90%; in assay [10], 58%; in assay [11] it was 90%; in assay [12], 58%. The Activity in assay [13] was found to be 90%; in [14], 58%; in assay [16], 58%; in assay [17], 90%; in [18], 58%. Besides, the “Cell viability relative to control” value in [15] turned out to be 90%.
Take `CCN1CCN(C(=O)c2c[nH]c3ncc(-c4ccc(S(C)(=O)=O)cc4)cc23)CC1`: the Activity in assay [1] was 95%; in assay [2], 70%; in assay [3], 95%; in [4], 70%; in [5] it was 95%; in [6], 70%. Further, the Activity in assay [7] is 95%; in assay [8], 70%; in assay [9], 95%; in [10] it was 70%; in [11], 95%; in assay [12] it was 70%. Moreover, the Activity was 95% in [13]; 70% in assay [14]; 70% in assay [16]; 95% in assay [17]; 70% in assay [18]. Also, the “Cell viability relative to control” value in [15] is reported as 95%.
Turning to `CCN(CC)c1ccc(CNC(=O)c2cc3cc(-c4ccc(S(=O)(=O)C(C)C)cc4)cnc3[nH]2)cc1`, the Activity in [1] is reported as 95%; in assay [2], 57%; in [3], 95%; in assay [4], 57%; in assay [5], 95%; in assay [6] it was 57%. In addition, the Activity in assay [7] came to 95%; in assay [8], 57%; in [9] it was 95%; in assay [10] it was 57%; in assay [11] it was 95%; in assay [12] it was 57%. Also, the Activity in [13] was 95%; in assay [14] it was 57%; in [16] it was 57%; in assay [17] it was 95%; in [18], 57%. In addition, in [15], the “Cell viability relative to control” value was 95%.
For `CS(=O)(=O)c1ccc(-c2cnc3[nH]c(C(=O)NCc4ccccc4)cc3c2)cc1`, the Activity in assay [1] was found to be 100%; in [2], 72%; in assay [3], 100%; in assay [4], 72%; in assay [5], 100%; in assay [6] it was 72%. Besides, the Activity came to 100% in [7]; 72% in [8]; 100% in assay [9]; 72% in assay [10]; 100% in assay [11]; 72% in assay [12]. Moreover, the Activity was determined as 100% in [13]; 72% in [14]; 72% in assay [16]; 100% in assay [17]; 72% in [18]. Also, in [15], the “Cell viability relative to control” value was 100%.
As to `CCN1CCN(C(=O)c2cc(-c3ccc(S(C)(=O)=O)cc3)[nH]n2)CC1`, the Activity amounted to 102% in assay [1]; 65% in assay [2]; 102% in assay [3]; 65% in [4]; 102% in assay [5]; 65% in assay [6]. The Activity was found to be 102% in [7]; 65% in [8]; 102% in assay [9]; 65% in assay [10]; 102% in assay [11]; 65% in assay [12]. Moreover, the Activity was determined as 102% in [13]; 65% in assay [14]; 65% in [16]; 102% in assay [17]; 65% in assay [18]. In addition, the “Cell viability relative to control” value in assay [15] is recorded as 102%.
In the case of `CC(C)S(=O)(=O)c1ccc(-c2cc(C(=O)N3CCC(c4ccccc4)CC3)n[nH]2)cc1`, the Activity came out at 84% in assay [1]; 62% in assay [2]; 84% in assay [3]; 62% in assay [4]; 84% in assay [5]; 62% in assay [6]. The Activity in assay [7] is 84%; in assay [8], 62%; in assay [9], 84%; in [10] it was 62%; in [11] it was 84%; in assay [12], 62%. Moreover, the Activity stood at 84% in assay [13]; 62% in [14]; 62% in assay [16]; 84% in assay [17]; 62% in assay [18]. For the same molecule, in assay [15], the “Cell viability relative to control” value was found to be 84%.
With `CS(=O)(=O)c1ccc(-c2cnc3[nH]cc(C(=O)N4CCC(c5ccccc5)CC4)c3c2)cc1`, the Activity is 49% in assay [1]; 44% in [2]; 49% in [3]; 44% in assay [4]; 49% in assay [5]; 44% in assay [6]. Further, the Activity came to 49% in assay [7]; 44% in assay [8]; 49% in [9]; 44% in assay [10]; 49% in assay [11]; 44% in [12]. For the same molecule, the Activity in [13] is on record as 49%; in [14], 44%; in assay [16] it was 44%; in assay [17], 49%; in assay [18] it was 44%. Besides, the “Cell viability relative to control” value in assay [15] came to 49%.
Regarding `CCN(CC)c1ccc(CNC(=O)c2n[nH]c3ncc(-c4ccc(S(=O)(=O)C(C)C)cc4)cc23)cc1`, the Activity in assay [1] was found to be 83%; in [2], 57%; in [3], 83%; in assay [4] it was 57%; in assay [5], 83%; in assay [6], 57%. For the same molecule, the Activity stood at 83% in assay [7]; 57% in assay [8]; 83% in [9]; 57% in assay [10]; 83% in assay [11]; 57% in assay [12]. The Activity in [13] was determined as 83%; in assay [14], 57%; in assay [16], 57%; in [17] it was 83%; in assay [18], 57%. For the same molecule, the “Cell viability relative to control” value in assay [15] is listed as 83%.
For the molecule `CC(C)S(=O)(=O)c1ccc(-c2cnc3[nH]cc(C(=O)Nc4ccc(N(C)C)cc4)c3c2)cc1`, the Activity is 96% in assay [1]; 59% in assay [2]; 96% in assay [3]; 59% in assay [4]; 96% in assay [5]; 59% in assay [6]. Moreover, the Activity in [7] is on record as 96%; in [8], 59%; in [9], 96%; in assay [10], 59%; in assay [11], 96%; in assay [12], 59%. For the same molecule, the Activity in assay [13] came to 96%; in assay [14], 59%; in assay [16] it was 59%; in assay [17], 96%; in [18], 59%. Besides, in assay [15], the “Cell viability relative to control” value was 96%.

The values are drawn from ChEMBL document CHEMBL5113478, “7-Azaindole, 2,7-diazaindole, and 1H-pyrazole as core structures for novel anticancer agents with potential chemosensitizing properties” (Eur J Med Chem, 2022).
